{"source": "patent US8906888B2", "about": "“Low-calcemic 16,23-diene 25-oxime analogs of 1α,25-dihydroxy vitamin D3” (Cytochroma Inc., priority 2005, dated 2014)", "key": {"[1]": {"test": "Pharmacokinetics after i.v. administration in rats", "format": "in vivo", "settings": "rat, iv, male Wistar rats, 16 mg/kg B.W.", "experimental": "A formulation of compound (20R)-I(e) dissolved in saline (0.9% NaCl): propylene glycol:ethanol (5:3:2; v/v/v) was prepared at a concentration of 20 mg/ml.\nNine male Wistar rats (150-200 g) were fasted 8 hours prior to the initiation of the study. At the initiation of the study, the nine rats received 0.8 ml/kg body weight (B.W.) of the dosing formulation by intravenous (i.v.) injection to deliver 16 mg of compound (20R)-I(e)/kg B.W. Blood was collected from three animals at 0 (day-1), 5, 15, 30, 60, 120, 180 and 240 minutes post dosing. At each time point, 1 ml of blood was collected from the orbital sinus in unpreserved Microtainer tubes. Separated serum samples were kept frozen at −80° C. until analysis. The concentration of compound (20R)-I(e) in the serum samples was quantified using a High Performance Liquid Chromatographic method with Mass Spectroscopy detection (LC MS/MS). An internal standard was added to an aliquot of […] of serum sample and extracted using solid phase extraction (SPE). Samples were passed through C18-SPE cartridges then compound (20R)-I(e) and the internal standard were eluted with 1 ml of methanol. Extracts were evaporated to dryness under nitrogen. The residues were reconstituted in […] of methanol:water (8:2; v/v) and analyzed by LC MS/MS. (iii) Results: Summary of the calculated pharmacokinetic parameters for the i.v. administration of a 16 mg/kg B.W. dose of compound (20R)-I(e) is in the Table below. The Area-Under-Curve (AUC) was calculated from T=0 to 240 min. The maximum concentration (Cmax) was determined from the mean serum concentration versus time profile. The elimination half life (T1/2) was calculated from the elimination phase of the concentration versus time profile assuming first order kinetic elimination."}, "MCF-7 cells": {"test_system": "MCF-7 cells", "test": "[3H]-Thymidine proliferation assay with MCF-7 cells", "format": "cell-based", "settings": "breast cancer cells, 3 days, 3H-thymidine incorporation", "experimental": "1. Preparation of Cell Suspension. • When MCF-7 cells were 70-80% confluent, aspirated growth media. Washed the cells with 1×PBS. Trypsinized with trypsin-EDTA from the plate, collected cells from the tissue culture flask, centrifuged (500×g, 5 min) and resuspended in growth media.\n2. Cell Plating. • Counted the cells and adjusted the cell density to 25,000/ml. Added 200 μl per well in a 96 well plate. Incubated plate for 24 h at 37° C. in a humidified atmosphere plus 5% CO2. Aspirated used media and replaced with 175 μl per well with proliferation media.\n(§1) 3. Substrate Addition. • Added 25 μl of compound (final concentration 10^−7 M, 5×10^−8 M, 10^−8 M, 5×10^−9 M, 10^−10 M or 0 M) into each designated well. Incubated plates for 3 days at 37° C. in a humidified atmosphere plus 5% CO2.\n(§2) 4. ^3H-Thymidine Incorporation. • Added ^3H-thymidine at 0.02 μCi per well and incubated at 37° C. in a humidified atmosphere plus 5% CO2 for 6 h.\n5. Plate Harvesting. • Aspirated all media and washed cells with 1×PBS. Trypsinized cells for 30 min at 37° C. in a humidified atmosphere plus 5% CO2. Harvested cells onto a 96 well filter plate (Millipore) using a Tomtec Cell Harvestor, according to manufacturers instructions.\n6. Scintillation Counting. • Added 25 μl of scintillation fluid per well. Counted the plate using a scintillation counter. Results: Compound (20R)-I(e) inhibited MCF-7 cell proliferation."}, "LNCaP cells": {"test_system": "LNCaP cells", "test": "[3H]-Thymidine proliferation assay with LNCaP cells", "format": "cell-based", "settings": "prostate cancer cells, 3 days, 3H-thymidine incorporation", "experimental": "1. Preparation of Cell Suspension. • When LNCaP cells were 70-80% confluent, aspirated media. Washed the cells with 1×PBS. Trypsinized with trypsin-EDTA from the plate, collected cells from the tissue culture flask, centrifuged (500×g, 5 min) and resuspended in media.\n2. Cell Plating. • Counted the cells and adjusted the cell density to 2,000/ml. Added 200 μl per well in a 96 well plate. Incubated plate for 24 h at 37° C. in a humidified atmosphere plus 5% CO2. Aspirated used media and replace with 175 μl per well with media.\nas §1, §2\n5. Plate Harvesting. • Aspirated all media. Trypsinized cells for 30 min at 37° C. in a humidified atmosphere plus 5% CO2. Harvested cells onto a 96 well filter plate (Millipore) using a Tomtec Cell Harvestor, according to manufacturers instructions.\n6. Scintillation Counting. • Added 25 μl of scintillation fluid per well. Counted the plate using a scintillation counter. Results: Compound (20R)-I(e) inhibited LNCaP cell proliferation."}}, "data": [{"compound": "C=C1/C(=C\\C=C2/CCC[C@]3(C)C([C@H](C)C/C=C/C(=NOC)C(C)(C)C)=CC[C@@H]23)C[C@@H](O)C[C@@H]1O", "note": "[(20R)-I(e)]", "values": [{"measurement": "Cmax", "setting": "[1]; mean serum concentration", "value": 38.9, "unit": "ng/mL"}, {"measurement": "AUC", "setting": "[1]; serum, T=0 to 240 min", "value": 39.6, "unit": "ng·h/mL"}, {"measurement": "half-life", "setting": "[1]; serum, first order elimination assumed, read-out: T1/2 (elimination half life) (converted)", "value": 15, "unit": "min"}, {"measurement": "Inhibition of MCF-7 cell proliferation", "setting": "MCF-7 cells", "value": "inhibited"}, {"measurement": "Inhibition of LNCaP cell proliferation", "setting": "LNCaP cells", "value": "inhibited"}]}]}
